Source: article PMC9636034 (Current Research in Food Science, 2022)

Target: α-glucosidase from yeast (Saccharomyces cerevisiae, UniProt P53341)
Assay: Inhibition assay against α-glucosidase from yeast
Format: biochemical

Sequence of α-glucosidase from yeast (P53341 whole entry): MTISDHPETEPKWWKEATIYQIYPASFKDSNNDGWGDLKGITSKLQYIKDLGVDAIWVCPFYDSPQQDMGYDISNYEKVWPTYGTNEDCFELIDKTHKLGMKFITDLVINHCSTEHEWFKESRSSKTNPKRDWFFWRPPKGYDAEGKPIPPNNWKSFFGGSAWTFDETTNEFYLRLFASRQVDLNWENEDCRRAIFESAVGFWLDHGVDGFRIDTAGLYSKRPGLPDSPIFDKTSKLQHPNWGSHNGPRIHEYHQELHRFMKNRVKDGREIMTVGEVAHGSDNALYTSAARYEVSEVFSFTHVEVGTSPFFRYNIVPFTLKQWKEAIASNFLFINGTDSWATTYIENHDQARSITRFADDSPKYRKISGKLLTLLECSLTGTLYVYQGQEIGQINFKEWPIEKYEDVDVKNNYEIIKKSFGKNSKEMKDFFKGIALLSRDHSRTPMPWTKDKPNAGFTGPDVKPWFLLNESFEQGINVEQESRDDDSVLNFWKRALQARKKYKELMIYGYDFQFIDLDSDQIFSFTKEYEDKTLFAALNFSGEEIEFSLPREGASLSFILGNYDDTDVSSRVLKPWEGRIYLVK

SMILES | IC50
CC(=O)[C@@H]1COC(=O)[C@H]1C [Compound 2, (3S, 4S)-4-acetyl-3-methyldihydrofuran-2 (3H)-one] | 193 ± 13.1 µM
CC1=C(C)C(C)(O)OC1=O (centres unmarked) [Compound 3, 2-methyl-2-hydroxy-3,4-dimethyl-5-oxo-2,5-dihydrofuran] | > 250 µM
